Structures are written as SMILES. Where only a bound is given, the exact number is not on record here.

For test [1], the system named is Kasumi-1 cells. Briefly: Kasumi-1 cellular viability assay (ATP-Lite, 72 h). As to conditions: Homo sapiens, ATP-Lite luminescence, % viability relative to DMSO. Format: cell-based. The method in brief:
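Viability was read by ATP-Lite One Step luminescence after 72 h compound treatment at 37 °C/5% CO2, normalised to DMSO control, with IC50 fitted from concentration-response. Cells were Kasumi-1 (AML FAB M2) at 15000 per well in RPMI-1640/10% FBS, 0.1% DMSO final.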

In test [2] the test system is Caov-3 cells. Description: Caov-3 cellular viability assay (ATP-Lite, 72 h). Format: cell-based. To be noted: Homo sapiens, ATP-Lite luminescence, % viability relative to DMSO. The method in brief: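 IC50 values come from concentration-response fits of luminescent ATP content (ATP-Lite One Step), normalised as % viability versus DMSO. Compound exposure was 72 h at 37 °C in RPMI-1640/10% FBS with 0.1% final DMSO. Wells held 10000 cells each.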

Test [3] addresses T1, recombinant METTL3/METTL14 complex (Homo sapiens, UniProt Q86U44).
T1 construct: purchased Active Motif 311970; host or cells: Sf9 cells
Briefly: METTL3/14 Scintillation Proximity Assay (SPA), RNA methyltransferase activity. Format: biochemical. To be noted: 5.31 nM METTL3/14 complex, 250 nM RNA substrate, 1 μM 3H-SAM, 90 min; for compounds marked * best of the two separated forms.

T1 sequence (Q86U44 whole entry): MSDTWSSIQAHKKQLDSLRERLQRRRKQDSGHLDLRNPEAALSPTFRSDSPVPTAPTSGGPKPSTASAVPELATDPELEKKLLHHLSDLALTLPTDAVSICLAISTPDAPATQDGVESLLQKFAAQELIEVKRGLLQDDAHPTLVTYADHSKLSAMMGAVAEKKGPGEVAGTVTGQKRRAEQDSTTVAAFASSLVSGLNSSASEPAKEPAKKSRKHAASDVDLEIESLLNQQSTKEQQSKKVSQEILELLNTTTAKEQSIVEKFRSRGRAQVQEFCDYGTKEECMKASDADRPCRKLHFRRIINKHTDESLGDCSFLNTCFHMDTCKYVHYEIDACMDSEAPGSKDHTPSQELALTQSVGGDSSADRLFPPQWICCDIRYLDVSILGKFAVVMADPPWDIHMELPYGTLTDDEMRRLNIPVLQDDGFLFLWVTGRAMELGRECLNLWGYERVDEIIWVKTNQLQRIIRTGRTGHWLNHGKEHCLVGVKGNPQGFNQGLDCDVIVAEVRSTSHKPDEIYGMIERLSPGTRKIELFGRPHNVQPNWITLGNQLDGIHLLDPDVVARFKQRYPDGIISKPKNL
T1 sequence (Q9HCE5 whole entry partner): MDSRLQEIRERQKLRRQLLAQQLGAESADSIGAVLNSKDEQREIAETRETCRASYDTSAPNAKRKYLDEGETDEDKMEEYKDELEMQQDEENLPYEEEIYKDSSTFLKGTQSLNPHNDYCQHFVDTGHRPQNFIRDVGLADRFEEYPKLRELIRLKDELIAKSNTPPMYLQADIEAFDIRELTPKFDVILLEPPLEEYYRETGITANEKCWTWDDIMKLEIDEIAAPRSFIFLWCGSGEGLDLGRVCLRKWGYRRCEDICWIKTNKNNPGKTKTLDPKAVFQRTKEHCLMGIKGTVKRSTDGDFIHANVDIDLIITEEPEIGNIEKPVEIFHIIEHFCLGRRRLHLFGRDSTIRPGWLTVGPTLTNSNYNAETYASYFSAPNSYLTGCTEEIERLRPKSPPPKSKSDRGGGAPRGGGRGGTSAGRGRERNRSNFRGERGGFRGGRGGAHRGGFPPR

Broadly, the IC50 is the concentration at which inhibition is half-maximal. As for `COc1cncc(-c2cn(Cc3ccc(N4CCC[C@@H](NCC5CCC5)C4)nn3)nn2)c1` [Compound 012, (R)-N-(cyclobutylmethyl)-1-(6-((4-(5-methoxypyridin-3-yl)-1H-1,2,3-triazol-1-yl)methyl)pyridazin-3-yl)piperidin-3-amine], the IC50 is 0.5 to 5 µM in test [1], 0.5 to 5 µM in test [2] and at most 0.05 µM in test [3].

On to `O=C(Nc1cncc(N2CCCC2)n1)C1(c2ccc(N3CCC[C@@H](NCC4CCC4)C3)cn2)COC1` [Compound 262, (R)-3-(5-(3-((cyclobutylmethyl)amino)piperidin-1-yl)pyridin-2-yl)-N-(6-(pyrrolidin-1-yl)pyrazin-2-yl)oxetane-3-carboxamide], for which the values for the IC50 in test [1], in test [2] and in test [3] were at most 0.5 µM, at most 0.5 µM and at most 0.05 µM, respectively.

As to `CC(c1cnn(-c2cncc(N(C)C)c2)c1)n1ccc(N2CCC[C@@H](NCC3CCC3)C2)cc1=O` (mixture of isomers) [Compound 156, 4-((R)-3-((cyclobutylmethyl)amino)piperidin-1-yl)-1-(1-(1-(5-(dimethylamino)pyridin-3-yl)-1H-pyrazol-4-yl)ethyl)pyridin-2(1H)-one], the IC50 in test [1] was at most 0.5 µM; in test [2] it was at most 0.5 µM; in test [3], at most 0.05 µM.

In the case of `COc1cncc(-c2cn(Cn3ccc(N4CCC[C@@H](NCC5CCC5)C4)cc3=O)nn2)c1` [Compound 063, (R)-4-(3-((cyclobutylmethyl)amino)piperidin-1-yl)-1-((4-(5-methoxypyridin-3-yl)-1H-1,2,3-triazol-1-yl)methyl)pyridin-2(1H)-one], the IC50 in test [1] is 0.5 to 5 µM; in test [2] it was 0.5 to 5 µM; in test [3], at most 0.05 µM.

For the compound `CC(c1ccc(N2CCC[C@@H](NCC3CCC3)C2)nn1)n1cc(-c2cncc(N3CCCC3)n2)nn1` (single isomer, unassigned) [Compound 285], the IC50 in test [1] was at most 0.5 µM; in test [2] it was at most 0.5 µM; in test [3] it was at most 0.05 µM.

As to `c1cc(-c2cn(Cc3ccc(N4CCC[C@@H](NCC5CCC5)C4)nn3)nn2)c2cncn2c1` [Compound 003, (R)-N-(cyclobutylmethyl)-1-(6-((4-(imidazo[1,5-a]pyridin-8-yl)-1H-1,2,3-triazol-1-yl)methyl)pyridazin-3-yl)piperidin-3-amine], the IC50 in test [1] is 0.5 to 5 µM; in test [2] it was over 5 µM; in test [3] it was at most 0.05 µM.

As to `COc1cc(-c2cn(Cc3ccc(N4CCC[C@@H](NCC56CC(F)(C5)C6)C4)nn3)nn2)c2cn[nH]c2c1` [Compound 018, (R)-N-((3-fluorobicyclo[1.1.1]pentan-1-yl)methyl)-1-(6-((4-(6-methoxy-1H-indazol-4-yl)-1H-1,2,3-triazol-1-yl)methyl)pyridazin-3-yl)piperidin-3-amine], the results for the IC50 in test [1], in test [2] and in test [3] were 0.5 to 5 µM, at most 0.5 µM and at most 0.05 µM, respectively.

For `CC(c1ccc(N2CCC[C@@H](NCC3CCC3)C2)cc1)n1cc(-c2cncc(N(C)C)c2)nn1` (stereo partly drawn) [Compound 189, 5-(1-(1-(4-((R)3-((cyclobutylmethyl)amino)piperidin-1-yl)phenyl)ethyl)-1H-1,2,3-triazol-4-yl)-N,N-dimethylpyridin-3-amine], the IC50 in test [1] was at most 0.5 µM; in test [2] it was at most 0.5 µM; in test [3], at most 0.05 µM.

With `c1cc(C2(n3cc(-c4cncc(C5CC5)n4)nn3)COC2)ncc1N1CCC[C@@H](NCC2CCC2)C1` [Compound 283, (R)-N-(cyclobutylmethyl)-1-(6-(3-(4-(6-cyclopropylpyrazin-2-yl)-1H-1,2,3-triazol-1-yl)oxetan-3-yl)pyridin-3-yl)piperidin-3-amine], the figures for the IC50 in test [1], in test [2] and in test [3] were at most 0.5 µM, at most 0.5 µM and at most 0.05 µM, respectively.

`CC(n1cc(-c2cncc(N(C)CC(F)(F)F)c2)nn1)n1ccc(N2CCC[C@@H](NCC3CCC3)C2)cc1=O` (single isomer, unassigned) [Compound 154]: the IC50 was at most 0.5 µM in test [1], at most 0.5 µM in test [2] and at most 0.05 µM in test [3].

Consider `CC(C)(c1ccc(N2CCC[C@@H](NCC3CC3)C2)cn1)c1nnc(-c2cncc(C3CC3)c2)s1` [Compound 363, (R)-N-(cyclopropylmethyl)-1-(6-(2-(5-(5-cyclopropylpyridin-3-yl)-1,3,4-thiadiazol-2-yl)propan-2-yl)pyridin-3-yl)piperidin-3-amine], for which the IC50 in test [1] was 0.5 to 5 µM; in test [2], 0.5 to 5 µM; in test [3], at most 0.05 µM.

Take `c1cc(C2(n3cc(-c4cncc(N5CCCC5)n4)nn3)COC2)ccc1N1CCC[C@@H](NCC2CCC2)C1` [Compound 301, (R)-N-(cyclobutylmethyl)-1-(4-(3-(4-(6-(pyrrolidin-1-yl)pyrazin-2-yl)-1H-1,2,3-triazol-1-yl)oxetan-3-yl)phenyl)piperidin-3-amine]: the IC50 in test [1] is at most 0.5 µM; in test [2], at most 0.5 µM; in test [3], at most 0.05 µM.

As to `CC(c1ccc(N2CCC[C@@H](NCC3(C)CC3)C2)cn1)n1cnc(-c2cncc(N3CCCC3)n2)c1` (single isomer, unassigned) [Compound 365], the values for the IC50 in test [1], in test [2] and in test [3] were at most 0.5 µM, at most 0.5 µM and at most 0.05 µM, respectively.

Consider `CC(n1cc(-c2cncc(N(C)C)n2)nn1)n1ccc(N2CCC[C@@H](NCC3CC3)C2)cc1=O` (single isomer, unassigned) [Compound 186], for which the IC50 in test [1] is at most 0.5 µM; in test [2], at most 0.5 µM; in test [3] it was at most 0.05 µM.

As for `O=C(Nc1cc(=O)n2ccccc2n1)C1(c2ccc(N3CCC[C@@H](NCC4CCCC4)C3)cn2)COC1` [Compound 325, (R)-3-(5-(3-((cyclopentylmethyl)amino)piperidin-1-yl)pyridin-2-yl)-N-(4-oxo-4H-pyrido[1,2-a]pyrimidin-2-yl)oxetane-3-carboxamide], the results for the IC50 in test [1], in test [2] and in test [3] were 0.5 to 5 µM, at most 0.5 µM and at most 0.05 µM, respectively.

For the compound `O=C(Nc1cc(=O)n2ccccc2n1)C1(c2ccc(N3CCC[C@@H](NCC4CC4)C3)cn2)COC1` [Compound 217, (R)-3-(5-(3-((cyclopropylmethyl)amino)piperidin-1-yl)pyridin-2-yl)-N-(4-oxo-4H-pyrido[1,2-a]pyrimidin-2-yl)oxetane-3-carboxamide], the figures for the IC50 in test [1], in test [2] and in test [3] were at most 0.5 µM, at most 0.5 µM and at most 0.05 µM, respectively.

As for `FC(F)(F)C1(CN[C@@H]2CCCN(c3ccc(C4(n5cc(-c6cncc(C7CC7)c6)nn5)COC4)nc3)C2)CC1` [Compound 335, (R)-1-(6-(3-(4-(5-cyclopropylpyridin-3-yl)-1H-1,2,3-triazol-1-yl)oxetan-3-yl)pyridin-3-yl)-N-((1-(trifluoromethyl)cyclopropyl)methyl)piperidin-3-amine], the figures for the IC50 in test [1], in test [2] and in test [3] were 0.5 to 5 µM, at most 0.5 µM and at most 0.05 µM, respectively.

For the compound `c1nnc(-c2cn(C3(c4ccc(N5CCC[C@@H](NCC6CC6)C5)cn4)COC3)nn2)cc1C1CC1` [Compound 343, (R)-N-(cyclopropylmethyl)-1-(6-(3-(4-(5-cyclopropylpyridazin-3-yl)-1H-1,2,3-triazol-1-yl)oxetan-3-yl)pyridin-3-yl)piperdin-3-amine], the IC50 was 0.5 to 5 µM in test [1], at most 0.5 µM in test [2] and at most 0.05 µM in test [3].

As for `COc1cc(-c2cn(Cc3ccc(N4CCC[C@@H](NCC5CCC5)C4)nn3)nn2)c2cn[nH]c2c1` [Compound 001, (R)-N-(cyclobutylmethyl)-1-(6-((4-(6-methoxy-1H-indazol-4-yl)-1H-1,2,3-triazol-1-yl)methyl)pyridazin-3-yl)piperidin-3-amine], the IC50 in test [1] was 0.5 to 5 µM; in test [2], at most 0.5 µM; in test [3], at most 0.05 µM.

Consider `CC1(CN[C@@H]2CCCN(c3ccc(C4(c5nnc(-c6cncc(N7CCCC7)n6)s5)COC4)nc3)C2)CC1` [Compound 367, (R)-N-((1-methylcyclopropyl)methyl)-1-(6-(3-(5-(6-(pyrrolidin-1-yl)pyrazin-2-yl)-1,3,4-thiadiazol-2-yl)oxetan-3-yl)pyridin-3-yl)piperdin-3-amine], for which the IC50 in test [1] is at most 0.5 µM; in test [2], at most 0.5 µM; in test [3], at most 0.05 µM.

Regarding `CC(n1cc(-c2cncc(N3CCC(C)(C)C3)n2)nn1)n1ccc(N2CCC[C@@H](NCC3CC3)C2)cc1=O` (single isomer, unassigned) [Compound 230], the IC50 is at most 0.5 µM in test [1], at most 0.5 µM in test [2] and at most 0.05 µM in test [3].

Regarding `COc1cncc(-c2cn(C(C)n3ccc(N4CCC[C@@H](NCC5CCC5)C4)c(F)c3=O)nn2)c1` (stereo partly drawn) [Compound 126, 4-((R)-3-((cyclobutylmethyl)amino)piperidin-1-yl)-3-fluoro-1-(1-(4-(5-methoxypyridin-3-yl)-1H-1,2,3-triazol-1-yl)ethyl)pyridin-2(1H)-one], the values for the IC50 in test [1], in test [2] and in test [3] were over 5 µM, 0.5 to 5 µM and at most 0.05 µM, respectively.

Take `CCC(NC(=O)c1cc(=O)n2ccccc2n1)c1ccc(N2CCC[C@@H](NCC3CCC3)C2)nn1` (single isomer, unassigned) [Compound 083]: the IC50 in test [1] is over 5 µM; in test [2], 0.5 to 5 µM; in test [3], at most 0.05 µM.

In the case of `c1cc(C2(n3cc(-c4cncc(N5CC6CC6C5)n4)nn3)COC2)ncc1N1CCC[C@@H](NCC2CCC2)C1` (stereo partly drawn) [Compound 291, (3R)-1-(6-(3-(4-(6-(3-azabicyclo[3.1.0]hexan-3-yl)pyrazin-2-yl)-1H-1,2,3-triazol-1-yl)oxetan-3-yl)pyridin-3-yl)-N-(cyclobutylmethyl)piperidin-3-amine], the IC50 in test [1] was at most 0.5 µM; in test [2], at most 0.5 µM; in test [3], at most 0.05 µM.

The values are drawn from patent US20250002475A1 (EPICS THERAPEUTICS, priority 2023, published 2025).
